Source: patent publication US10041922B2, “Biochemistry based ocular toxicity assay” (priority 2015, dated 2018)
Read-outs that look alike come from different tables or passages of the source.

Columns and labels:
eye = details: cited from earlier work
[1] = tested on: water-soluble protein/glycoprotein test matrix; test: Water soluble assay (Alpha): optical response (OD400) of the macromolecule active agent, irritation score; details: TP/FN/TN based on comparison with the in vivo test results
Protocol: (§1) The macromolecule based test matrix behaves as an active agent in the assay and is capable of undergoing a measurable change when exposed to an ocular irritant. The measurable change may be a change in appearance, which can be measured by spectrophotometry. One or more standards of known toxicity are added to at least a second aliquot of the water-soluble matrix to form control solutions, to generate a calibration curve. The measurable change induced by the test substance can be compared to the measurable change induced by the standards to make an ocular toxicity prediction. For instance, test substances that induce an equal or greater reaction than a known irritant may be classified as ocular irritants. In some embodiments, the pH of the control solution may be adjusted to match the pH of the test solution, thereby controlling for pH effects and increasing accuracy. In some embodiments, a test substance which is at least partially water insoluble is added to an aliquot of a reagent comprised of one or more hydrophobic organic polymers capable of undergoing a measurable change in response to water insoluble ocular irritants. The measurable change may be a change in appearance, which can be measured by spectrophotometry. One or more standards of known toxicity are added to at least a second aliquot of the reagent to generate a calibration curve. The measurable change induced by the test substance can be compared to the measurable change induced by the standards to make an ocular toxicity prediction in the manner described above. Water-soluble and water-insoluble assays can be performed in parallel, or multiplexed, to rapidly and efficiently predict the ocular toxicity of a wide range of compounds.
(§2) In some embodiments related to the water-soluble sub-assay, the test matrix is a water-soluble active agent comprising one or more macromolecules in aqueous solution. […] In some embodiments, the water-soluble active agent comprises at least one of isoleucine, glutamine, leucine, lysine, tyrosine, valine, proline, methione, fumerase, serine, urocanate, triacyl glycerol, globulin, gammaglobulin, mucopolysaccharide, albumin, carbohydrates, lipids, saponins, conalbumin, ovalbumin, ovomucoid, mucin, egg white fractions, plant extract, cell extract, milk fractions, red blood cell extract, muscle extract, gelatin fractions, heme, aspartate, lignocerate, stearate, linolenate, benzoate, carnitine, palmate, coenzyme A, and urea. The molecules and macromolecules can be derived as crude cell or tissue extracts, or obtained individually or in part and reconstituted.
(§3) A third pretest is performed to measure the buffering power of the unknown test substance. […] Next, 125 μL or mg of test substance is added to the test tube. The pH of the mixture is recorded. The final pH is compared to the starting pH and the absolute value of the change in pH is applied as an exponent to base 10 to generate a buffering score. These pretest results are used to select specific procedures to further analyze the test substance. Compounds with a buffering score between 5 and 2 are within the MA α domain. Compounds outside of the MA α domain with buffering scores less than 100 are within the HMA α domain. Substances with a buffering score of at least 100 are within the H-test domain.
(§4) The MA α procedure is used to test unknowns that have a small buffering capacity. The MA α procedure predicts a substance's capacity for indirect denaturation of molecules across a membrane via osmotic effects, such as osmotic effects across the corneal epithelium and stroma which can damage the cornea. The MA α assay further analyzes Potential to damage tissue via excessive oxidation and reactivity, which can occur at the epithelium, stroma, conjunctiva and iris.

[2] = Water insoluble assay (Delta): optical response (OD700) of the hydrophobic polymer Δ reagent, irritation score; details: TP/FN/TN based on comparison with the in vivo test results
Protocol: Triplicate Δ Test and Δ Control cells are labeled as follows: Test Cell 40 μL; Control Cell 40 μL; Test Cell Standard A; Test Cell Standard B. The cells are placed in a rack. 40 μL aliquots of test sample are added to the three Δ positive cells. 40 μL of Standard A+ and 40 μL of Standard B+ are added to the respective triplicate cells. 40 μL of test substance is aliquoted to the True Negative cell. All test and standard cells (A+, B+, and control cells) are filled with 2 mL of Δ reagent. […] 2 mL of Δ reagent is added to a naïve Δ test cell to blank a spectrophotometer. The OD700 value is measured for all test and standard cells. Where the substance is colored or opaque, 2 mL of Δ reagent are added to a naïve control Δ cell, and the OD700 value is measured for all control cells.
Test Cell values are recorded. Control cell values are recorded. Where samples are colored or opaque Net OD700 values are obtained by subtracting the average of the control cell OD700 value from the average of the test cell OD700 value. The average of positive controls A+ and B+ are calculated.
For each unknown, an irritancy classification is ascertained by using the closest positive cell value. The highest measured value is used. The standard with the closest OD value is identified as the Closest Standard Value. The Measured Value is divided by the mean of the three Closest Standard Values. A multiplier is applied to the quotient corresponding to the designation of the Closest Standard Value. If the Closest Standard Value is A+, the multiplier is 8. […] The resulting value is the irritation score for the sample. The highest score is used to predict the irritancy of the sample.

[3] = tested on: water-soluble protein/glycoprotein test matrix
Protocol: as §1, §2, §3, §4

[4] = category of irritant from published in vivo irritancy tests (GHS)

| Structure (SMILES) | in vivo (eye; [4]) | Water soluble assay (Alpha), parenthetical call versus in vivo [1] | water insoluble assay (Delta), parenthetical call versus in vivo [2] | in vivo (eye; rabbit, in vivo) | Water soluble assay (Alpha) [3] | Water soluble assay (Alpha), parenthetical call versus in vivo [3] |
| --- | --- | --- | --- | --- | --- | --- |
| ClCCCCBr [1-Bromo-4-chlorobutane] | Not Classified | (TN) | TN) | – | – | – |
| c1ccncc1 [Pyridine] | – | – | – | Category 1 | – | – |
| OCc1ccccc1 [Benzyl Alcohol] | – | (TP) | (TP) | – | – | – |
| CC(C)O [2-Propanol] | Category 2A | (TP) | (FN) | – | – | – |
| CCCCC(CC)COC(=O)c1ccc(N(C)C)cc1 (stereo not shown) [2-Ethylhexyl 4-(dimethylamino)benzoate] | Not Classified | (TN) | (TN) | – | – | – |
| CCOC(=O)C(C)(C)O [Ethyl a-hydroxyisobutyrate] | – | – | – | Category 1 | >60 | (TP) |
| O=C=Nc1ccc(Cl)c(Cl)c1 [3,4-Dichlorophenyl isocyanate] | – | (TP) | (FN) | – | – | – |
| CC(C)(C)CC(C)(C)c1ccc(O)cc1 [4-(1,1,3,3-Tetramethylbutyl)phenol] | – | (TP) | (FN) | – | – | – |
| C=CC(=O)OCCO [Hydroxyethyl acrylate] | – | (TP) | – | – | – | – |
| CCOC(=O)C(C)C(C)=O (stereo not shown) [Ethyl 2-methyl] | – | – | – | Category 2B | 10.9 | (FN) |
| CCCCCCCCCCCC [Dodecane] | Not Classified | (TN) | (TN) | – | – | – |
| CCCCCCCCN [n-Octylamine] | – | (TP) | (TP) | – | – | – |
| BrCCCCCCBr [1,6-Dibromohexane] | Not Classified | (TN) | (TN) | – | – | – |
| CCC(C)(C)C(=O)O [2,2-Dimethyl Butanoic Acid] | – | (TP) | (FN) | – | – | – |
| CO[Si](CCCNCCC[Si](OC)(OC)OC)(OC)OC [Organofunctional Silane] | – | – | – | Category 1 | 25.53 | (TP) |
| CCCCCCO [1-Hexanol] | Category 2A | (TP) | (FN) | – | – | – |
| CN(C)CCCCCCN(C)C [tetramethyl-1,6 hexanediame] | – | (TP) | (TP) | – | – | – |
| NCCO [Ethanolamine] | Category 2B | (TP) | (FN) | – | – | – |
| CCN(CC)CCO [Diethylethanolamine] | – | – | – | Category 1 | 53.54 | (TP) |
| O=C(Cl)C(Cl)(Cl)Cl [Trichloroacetyl chloride] | – | (TP) | (TP) | – | – | – |
